*1 amine or outer side, *2 acyl side, *3 side chain or, on linkers, in order; H or OH if unused. Where a SMILES comes first, the peptide text is derived from it. Side-chain parts run from the residue outwards. [ ]: non-standard residue; d: D form. The star is where a group is joined. C20 diacid = O=C(O)CCCCCCCCCCCCCCCCCCC(=O)*; αMePhe(2-F) = C[C@](N)(Cc1ccccc1F)C(=O)O; γGlu = O=C(O)[C@H](CCC(=O)[*:2])N[*:1]; αMeF = C[C@](N)(Cc1ccccc1)C(=O)O; 4Pal = N[C@@H](Cc1ccncc1)C(=O)O; αMeL = CC(C)C[C@](C)(N)C(=O)O; AEEA = NCCOCCOCC(=O)O; Aib = CC(C)(N)C(=O)O
Key:
[1] = biological target: T1, human GIPR (Homo sapiens, UniProt P48546); assay: [125I]-GIP binding, SPA with WGA beads, 0.1% bacitracin; conditions: geometric mean, read-out: hGIPR Ki
T1 construct: expressed in transfected cells; crude membranes
T1 sequence (P48546 22-466): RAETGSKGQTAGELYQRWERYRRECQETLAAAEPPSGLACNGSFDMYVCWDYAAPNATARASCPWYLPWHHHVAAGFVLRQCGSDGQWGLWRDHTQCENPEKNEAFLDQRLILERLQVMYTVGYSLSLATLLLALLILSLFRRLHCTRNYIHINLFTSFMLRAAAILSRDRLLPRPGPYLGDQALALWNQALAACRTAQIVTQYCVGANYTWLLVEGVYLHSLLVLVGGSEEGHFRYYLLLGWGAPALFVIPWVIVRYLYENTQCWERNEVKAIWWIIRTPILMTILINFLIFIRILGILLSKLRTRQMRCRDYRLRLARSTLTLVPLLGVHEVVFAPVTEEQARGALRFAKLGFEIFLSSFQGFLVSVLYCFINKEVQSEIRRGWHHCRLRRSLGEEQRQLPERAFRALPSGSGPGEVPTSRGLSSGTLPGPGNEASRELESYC
Summary of the method: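 Ki values are geometric means (SEM, n independent days), derived from four-parameter nonlinear regression of IC50. Membranes came from hGIPR-expressing CHO cells.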

[2] = biological target: T2, human GLP-1R (Homo sapiens, UniProt P43220); assay: [125I]-GLP-1 binding, SPA with WGA beads, 0.1% bacitracin; conditions: geometric mean, read-out: hGLP1R Ki
T2 construct: expressed in transfected cells; crude membranes
Summary of the method: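 Binding buffer was 25 mM HEPES pH 7.4 with 2.5 mM CaCl2, 1 mM MgCl2, 0.1% (w/v) bacitracin, 0.003% Tween-20 and EDTA-free protease inhibitors. Four-parameter regression gave IC50, converted to Ki (geometric mean, SEM, n independent days).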

T2 sequence (P43220 24-463): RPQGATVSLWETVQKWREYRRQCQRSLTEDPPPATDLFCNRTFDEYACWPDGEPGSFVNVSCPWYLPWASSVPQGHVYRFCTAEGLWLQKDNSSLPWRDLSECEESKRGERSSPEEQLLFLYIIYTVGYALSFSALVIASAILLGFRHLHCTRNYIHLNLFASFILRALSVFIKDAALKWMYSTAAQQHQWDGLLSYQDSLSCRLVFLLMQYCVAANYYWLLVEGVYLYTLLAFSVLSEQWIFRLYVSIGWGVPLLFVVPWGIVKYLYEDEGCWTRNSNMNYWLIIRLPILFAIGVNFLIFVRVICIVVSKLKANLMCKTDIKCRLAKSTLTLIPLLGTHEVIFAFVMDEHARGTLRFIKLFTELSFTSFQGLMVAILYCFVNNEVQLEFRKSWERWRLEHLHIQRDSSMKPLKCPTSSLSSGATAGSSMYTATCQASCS

SMILES	Ki [1]	Ki [2]
CC[C@H](C)[C@H](NC(=O)[C@H](CO)NC(=O)[C@H](Cc1ccc(O)cc1)NC(=O)[C@H](CC(=O)O)NC(=O)[C@H](CO)NC(=O)[C@@H](NC(=O)[C@](C)(Cc1ccccc1)NC(=O)[C@@H](NC(=O)CNC(=O)[C@H](CCC(=O)O)NC(=O)C(C)(C)NC(=O)[C@@H](N)Cc1ccc(O)cc1)[C@@H](C)O)[C@@H](C)CC)C(=O)N[C@@H](C)C(=O)N[C@@H](CC(C)C)C(=O)N[C@@H](CC(=O)O)C(=O)N[C@@H](CCCCN)C(=O)N[C@@H](CCCCNC(=O)COCCOCCNC(=O)COCCOCCNC(=O)CC[C@H](NC(=O)CCCCCCCCCCCCCCCCCCC(=O)O)C(=O)O)C(=O)N[C@@H](Cc1c[nH]cn1)C(=O)N[C@@H](CCC(N)=O)C(=O)NC(C)(C)C(=O)N[C@@H](CC(=O)O)C(=O)N[C@@H](Cc1ccccc1)C(=O)N[C@H](C(=O)N[C@@H](CCC(=O)O)C(=O)N[C@@H](Cc1ccncc1)C(=O)N[C@@H](CC(C)C)C(=O)N[C@@H](CC(C)C)C(=O)N[C@@H](CCC(=O)O)C(=O)NCC(=O)NCC(=O)N1CCC[C@H]1C(=O)N[C@@H](CO)C(=O)N[C@@H](CO)C(=O)NCC(=O)N[C@@H](C)C(=O)N1CCC[C@H]1C(=O)N1CCC[C@H]1C(=O)N1CCC[C@H]1C(=O)N[C@@H](CO)C(N)=O)C(C)C [Example 44] (H-Y[Aib]EGT[αMeF]ISDYSIALDKK([AEEA-AEEA-γGlu-C20 diacid])HQ[Aib]DFVE[4Pal]LLEGGPSSGAPPPS-NH2)	59 pM	209000 pM
CC[C@H](C)[C@H](NC(=O)[C@H](Cc1ccccc1)NC(=O)[C@@H](NC(=O)CNC(=O)[C@H](CCC(=O)O)NC(=O)C(C)(C)NC(=O)[C@@H](N)Cc1ccc(O)cc1)[C@@H](C)O)C(=O)N[C@@H](CO)C(=O)N[C@@H](CC(=O)O)C(=O)N[C@@H](Cc1ccc(O)cc1)C(=O)N[C@@H](CO)C(=O)N[C@H](C(=O)N[C@@](C)(CC(C)C)C(=O)N[C@@H](CC(C)C)C(=O)N[C@@H](CC(=O)O)C(=O)N[C@@H](CCCCN)C(=O)N[C@@H](CCCCNC(=O)COCCOCCNC(=O)COCCOCCNC(=O)CC[C@H](NC(=O)CCCCCCCCCCCCCCCCCCC(=O)O)C(=O)O)C(=O)N[C@@H](Cc1c[nH]cn1)C(=O)N[C@@H](CCC(N)=O)C(=O)NC(C)(C)C(=O)N[C@@H](CC(=O)O)C(=O)N[C@@H](Cc1ccccc1)C(=O)N[C@H](C(=O)N[C@@H](CCC(=O)O)C(=O)N[C@@H](Cc1ccncc1)C(=O)N[C@@H](CC(C)C)C(=O)N[C@@H](CC(C)C)C(=O)N[C@@H](CCC(=O)O)C(=O)N[C@H](C(=O)NCC(=O)N1CCC[C@H]1C(=O)N[C@@H](CO)C(=O)N[C@@H](CO)C(=O)NCC(=O)N[C@@H](C)C(=O)N1CCC[C@H]1C(=O)N1CCC[C@H]1C(=O)N1CCC[C@H]1C(=O)N[C@@H](CO)C(N)=O)[C@@H](C)O)C(C)C)[C@@H](C)CC [Example 45] (H-Y[Aib]EGTFISDYSI[αMeL]LDKK([AEEA-AEEA-γGlu-C20 diacid])HQ[Aib]DFVE[4Pal]LLETGPSSGAPPPS-NH2)	66.3 pM	> 909000 pM
CC[C@H](C)[C@H](NC(=O)[C@H](CO)NC(=O)[C@H](Cc1ccc(O)cc1)NC(=O)[C@H](CC(=O)O)NC(=O)[C@H](CO)NC(=O)[C@@H](NC(=O)[C@](C)(Cc1ccccc1F)NC(=O)[C@@H](NC(=O)CNC(=O)[C@H](CCC(=O)O)NC(=O)C(C)(C)NC(=O)[C@@H](N)Cc1ccc(O)cc1)[C@@H](C)O)[C@@H](C)CC)C(=O)N[C@@H](C)C(=O)N[C@@H](CC(C)C)C(=O)N[C@@H](CC(=O)O)C(=O)N[C@@H](CCCCN)C(=O)N[C@@H](CCCCNC(=O)COCCOCCNC(=O)COCCOCCNC(=O)CC[C@H](NC(=O)CCCCCCCCCCCCCCCCCCC(=O)O)C(=O)O)C(=O)N[C@@H](Cc1c[nH]cn1)C(=O)N[C@@H](CCC(N)=O)C(=O)NC(C)(C)C(=O)N[C@@H](CC(=O)O)C(=O)N[C@@H](Cc1ccccc1)C(=O)N[C@H](C(=O)N[C@@H](CCC(=O)O)C(=O)N[C@@H](Cc1ccncc1)C(=O)N[C@@H](CC(C)C)C(=O)N[C@@H](CC(C)C)C(=O)N[C@@H](CCC(=O)O)C(=O)N[C@H](C(=O)NCC(=O)N1CCC[C@H]1C(=O)N[C@@H](CO)C(=O)N[C@@H](CO)C(=O)NCC(=O)N[C@@H](C)C(=O)N1CCC[C@H]1C(=O)N1CCC[C@H]1C(=O)N1CCC[C@H]1C(=O)N[C@@H](CO)C(N)=O)[C@@H](C)O)C(C)C [Example 38] (H-Y[Aib]EGT[αMePhe(2-F)]ISDYSIALDKK([AEEA-AEEA-γGlu-C20 diacid])HQ[Aib]DFVE[4Pal]LLETGPSSGAPPPS-NH2)	58.8 pM	776000 pM
CC[C@H](C)[C@H](NC(=O)[C@H](Cc1ccccc1)NC(=O)[C@@H](NC(=O)CNC(=O)[C@H](CCC(=O)O)NC(=O)C(C)(C)NC(=O)[C@@H](N)Cc1ccc(O)cc1)[C@@H](C)O)C(=O)N[C@@H](CO)C(=O)N[C@@H](CC(=O)O)C(=O)N[C@@H](Cc1ccc(O)cc1)C(=O)N[C@@H](CO)C(=O)N[C@H](C(=O)N[C@@](C)(CC(C)C)C(=O)N[C@@H](CC(C)C)C(=O)N[C@@H](CC(=O)O)C(=O)N[C@@H](CCCCN)C(=O)N[C@@H](CCCCNC(=O)COCCOCCNC(=O)COCCOCCNC(=O)CC[C@H](NC(=O)CCCCCCCCCCCCCCCCCCC(=O)O)C(=O)O)C(=O)N[C@@H](Cc1c[nH]cn1)C(=O)N[C@@H](CCC(N)=O)C(=O)NC(C)(C)C(=O)N[C@@H](CCC(=O)O)C(=O)N[C@@H](Cc1ccccc1)C(=O)N[C@H](C(=O)N[C@@H](CCC(=O)O)C(=O)N[C@@H](Cc1ccc(O)cc1)C(=O)N[C@@H](CC(C)C)C(=O)N[C@@H](CC(C)C)C(=O)N[C@@H](CCC(=O)O)C(=O)N[C@@H](CCC(N)=O)C(=O)NCC(=O)N1CCC[C@H]1C(=O)N[C@@H](CO)C(=O)N[C@@H](CO)C(=O)NCC(=O)N[C@@H](C)C(=O)N1CCC[C@H]1C(=O)N1CCC[C@H]1C(=O)N1CCC[C@H]1C(=O)N[C@@H](CO)C(N)=O)C(C)C)[C@@H](C)CC [Example 63] (H-Y[Aib]EGTFISDYSI[αMeL]LDKK([AEEA-AEEA-γGlu-C20 diacid])HQ[Aib]EFVEYLLEQGPSSGAPPPS-NH2)	24.8 pM	327000 pM
CC[C@H](C)[C@H](NC(=O)[C@H](CO)NC(=O)[C@H](Cc1ccc(O)cc1)NC(=O)[C@H](CC(=O)O)NC(=O)[C@H](CO)NC(=O)[C@@H](NC(=O)[C@](C)(Cc1ccccc1)NC(=O)[C@@H](NC(=O)CNC(=O)[C@H](CCC(=O)O)NC(=O)C(C)(C)NC(=O)[C@@H](N)Cc1ccc(O)cc1)[C@@H](C)O)[C@@H](C)CC)C(=O)N[C@@H](C)C(=O)N[C@@H](CC(C)C)C(=O)N[C@@H](CC(=O)O)C(=O)N[C@@H](CCCCN)C(=O)N[C@@H](CCCCNC(=O)COCCOCCNC(=O)COCCOCCNC(=O)CC[C@H](NC(=O)CCCCCCCCCCCCCCCCCCC(=O)O)C(=O)O)C(=O)N[C@@H](Cc1c[nH]cn1)C(=O)N[C@@H](CCC(N)=O)C(=O)NC(C)(C)C(=O)N[C@@H](CC(=O)O)C(=O)N[C@@H](Cc1ccccc1)C(=O)N[C@H](C(=O)N[C@@H](CCC(=O)O)C(=O)N[C@@H](Cc1ccncc1)C(=O)N[C@@H](CC(C)C)C(=O)N[C@@H](CC(C)C)C(=O)N[C@@H](CCC(=O)O)C(=O)N[C@@H](C)C(=O)NCC(=O)N1CCC[C@H]1C(=O)N[C@@H](CO)C(=O)N[C@@H](CO)C(=O)NCC(=O)N[C@@H](C)C(=O)N1CCC[C@H]1C(=O)N1CCC[C@H]1C(=O)N1CCC[C@H]1C(=O)N[C@@H](CO)C(N)=O)C(C)C [Example 43] (H-Y[Aib]EGT[αMeF]ISDYSIALDKK([AEEA-AEEA-γGlu-C20 diacid])HQ[Aib]DFVE[4Pal]LLEAGPSSGAPPPS-NH2)	36.6 pM	605000 pM
CC[C@H](C)[C@H](NC(=O)[C@H](CO)NC(=O)[C@H](Cc1ccc(O)cc1)NC(=O)[C@H](CC(=O)O)NC(=O)[C@H](CO)NC(=O)[C@@H](NC(=O)[C@](C)(Cc1ccccc1)NC(=O)[C@@H](NC(=O)CNC(=O)[C@H](CCC(=O)O)NC(=O)C(C)(C)NC(=O)[C@@H](N)Cc1ccc(O)cc1)[C@@H](C)O)[C@@H](C)CC)C(=O)N[C@@H](C)C(=O)N[C@@H](CC(C)C)C(=O)N[C@@H](CC(=O)O)C(=O)N[C@@H](CCCCN)C(=O)N[C@@H](CCCCNC(=O)COCCOCCNC(=O)COCCOCCNC(=O)CC[C@H](NC(=O)CCCCCCCCCCCCCCCCCCC(=O)O)C(=O)O)C(=O)N[C@@H](Cc1c[nH]cn1)C(=O)N[C@@H](CCC(N)=O)C(=O)NC(C)(C)C(=O)N[C@@H](CC(=O)O)C(=O)N[C@@H](Cc1ccccc1)C(=O)N[C@H](C(=O)N[C@@H](CCC(=O)O)C(=O)N[C@@H](Cc1ccncc1)C(=O)N[C@@H](CC(C)C)C(=O)N[C@@H](CC(C)C)C(=O)N[C@@H](CCC(=O)O)C(=O)N[C@H](C(=O)NCC(=O)N1CCC[C@H]1C(=O)N[C@@H](CO)C(=O)N[C@@H](CO)C(=O)NCC(=O)N[C@@H](C)C(=O)N1CCC[C@H]1C(=O)N1CCC[C@H]1C(=O)N1CCC[C@H]1C(=O)N[C@@H](CO)C(N)=O)[C@@H](C)O)C(C)C [Example 41] (H-Y[Aib]EGT[αMeF]ISDYSIALDKK([AEEA-AEEA-γGlu-C20 diacid])HQ[Aib]DFVE[4Pal]LLETGPSSGAPPPS-NH2)	143 pM	> 906000 pM

Source: patent US12723063B2, “GIPR-agonist compounds” (Eli Lilly and Company, priority 2019, dated 2026)
